“Also recorded” adds a separate entry of the source.

For data set [1], the system named is MDA-MB-468 human breast carcinoma xenografts. Put plainly: 6-week efficacy study of HA ± 5-FU in nude mouse xenografts. The data set is classed as in vivo. How it is done: From the results in Example 2 the carcinoma cell line MDA-MB-468 was selected as the cancer cell inoculant for the generation of any nude mouse human tumour xenografts. Cells were routinely grown and subcultured as a previously described in Example 2. For injection into mice, cells were grown to 100% confluency, trypsinised in 0.025% trypsin/0.01% EDTA solution, washed twice by centrifugation in a Beckman TJ-6 bench centrifuge at 400 gav for 10 min, counted using a Model-ZM Coulter counter and resuspended in serum-free Leibovitz L-15 medium at 1×10^8 cells/ml. […]
Individual injections of 5-FU were prepared according to individual mouse masses, with the aim of delivering 30 mg/kg 5-FU in 50 μl (equivalent to human therapeutic dose of 10.5 mg/kg for a mean body weight of 60 kg; Inaba et al, 1988). […] With this quantity of HA injected into the body, saturation kinetics would be observed for the period of the experimentation (Fraser et al, 1983). […]
Animals were weighed and tumour volumes measured on the day of treatment application for long term study. In the 6-week study animals were weighed and tumour volumes measured on a daily basis. […]
Tumour volume was monitored on a daily or weekly basis by caliper measurements and tumour volume calculated as previously described.

Data set [2] is described as follows: 6-week study: treatment toxicity (body mass, blood, organ mass, survival).
Source text: Animals were monitored daily for GI tract upset such as diarrhea and weekly for more severe toxicity manifestations such as weight loss.
As one of the major toxicities associated with 5-FU treatment is depression of the bone marrow and subsequent drop in white blood cells it was necessary to assess any treatment associated blood toxicity. Upon anaesthetizing the animals, blood was collected from the heart or great vessels using a needle and syringe. Estimation of white blood cell number by making a 1/50 dilution of blood in mouse tenacity saline (M) and counting it on a haemocytometer. A differential blood count was performed by counting-neutrophils, lymphocytes, and erythrocytes. The total estimation of blood cell sub-populations was compared to published data for mouse blood.
The mass of each organ was calculated as a % of the overall net body weight, and compared to the organ masses of the saline only group (Group 1).
Data set [3] relates to Human LIM1215 colon cancer xenografts. Put plainly: 14-week efficacy study, irinotecan ± HA in colon cancer xenografts. The following applies: 13.3, 26.6 or 150 mg/kg HA, IV bolus Day 1 of 14 × q7 D. The data set is classed as in vivo, mouse. The source says:
Human LIM1215 colon cancer xenografts were inoculated into the mammary fat pad of athymic […] nude mice. Mice were randomly distributed into eight treatment groups (8 mice per group).
The treatment regime comprised of injections on Day 1 of a 7-day cycle for duration of fourteen weeks. Primary tumor volume, animal body mass, energy levels and food consumption were monitored three times weekly.
Athymic CBA/WEHI nude female mice (Walter and Eliza Hall Research Institute, Melbourne, Australia), 6 to 8 weeks old, were maintained under specific pathogen-free conditions, with sterilized food and water available ad libitum. Each mouse received one injection containing 1×10^7 cells in 50-100 μl. […]
Any animals with a tumor volume expressed as a percentage of body weight outside 0.25±0.10 (mean±1 SD) were excluded from data analysis. […]
The experimental end-point for each animal occurred either when the animal had to be euthanized due to a high degree of disease progression or when the 14-week study had been completed. The animals were monitored three times weekly and the following criteria were established to determine whether an animal had reached the experimental end point: tumour mass is greater than 10% of the animals total body mass; the animal is metabolically stressed (i.e. losing weight); or the animal is immobilized.

As to hyaluronan [HA], the “non-lymphoid metastasis (new tumours near primary tumour)” value in data set [1] (6-week study) was “significant reduction in non-lymphoid metastasis”. The “tumour mass at the end of the 6 week study, compared with other groups” value in data set [1] (iv 12.5 mg/kg HA and/or 30 mg/kg 5-FU, 6 x 7 day cycles) is on record as “significantly decreased the primary tumour mass; also recorded: reducing the primary tumour mass in comparison to the saline control”. The organ mass toxicity result in data set [2] is “did not result in any dramatic toxicity”. The “body mass / well being versus 5-FU treatment group” value in data set [2] (HA as sole agent or chemosensitizer) was “did not loose weight, but maintained its body mass”. Also, the “disease course with HA alone” value in data set [3] is listed as “progressive disease”.
